Experimental data reported in patent US6534502B2, “Substituted oximes and hydrazones as neurokinin antagonists” (Schering Corporation, priority 1998, dated 2003).
pKi: −log10 of the molar value.

How the values were obtained:
[1] = biological target: NK1 receptor (Homo sapiens, UniProt P25103); assay: neurokinin receptor binding assay, NK1
Excerpt: (§1) The in vitro and in vivo activity of the compounds of formula I can be determined by various procedures known in the art, such as a test for their ability to inhibit the activity of the NK1 agonist Substance P, an isolated hamster trachea NK2 assay, a test of the effect of NK1 antagonists on Substance P-induced airway microvascular leakage, measurement of NK2 activity in vivo in guinea pigs, measurement of bronchoconstriction due to NKA, and neurokinin receptor binding assay(s). NK3 activity is determined by following a procedure similar to that described in the literature, e.g., Molecular Pharmacol., 48 (1995), p. 711-716.
(§2) % Inhibition of neurokinin agonist activity is the difference between the percent of maximum specific binding (MSB) and 100%. The percent of MSB is defined by the following equation, wherein “dpm” is disintegrations per minute: [formula]

[2] = biological target: T1, NK2 receptor (Homo sapiens, UniProt P21452); assay: neurokinin receptor binding assay, NK2
T1 sequence (P21452 1-398): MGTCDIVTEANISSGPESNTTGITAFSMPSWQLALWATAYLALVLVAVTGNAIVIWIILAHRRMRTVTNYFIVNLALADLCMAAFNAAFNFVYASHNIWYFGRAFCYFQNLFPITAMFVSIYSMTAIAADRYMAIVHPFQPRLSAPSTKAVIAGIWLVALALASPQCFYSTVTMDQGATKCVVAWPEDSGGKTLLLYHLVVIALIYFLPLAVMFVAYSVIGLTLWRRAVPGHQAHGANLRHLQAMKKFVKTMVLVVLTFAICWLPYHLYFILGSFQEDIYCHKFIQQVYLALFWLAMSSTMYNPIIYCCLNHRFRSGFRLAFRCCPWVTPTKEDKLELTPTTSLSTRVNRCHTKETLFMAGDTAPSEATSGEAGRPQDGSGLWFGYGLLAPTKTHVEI
Excerpt: as §1, with “assay(s).” for “assay(s). NK3 activity is determined by following a procedure similar to that described in the literature, e.g., Molecular Pharmacol., 48 (1995), p. 711-716.”
as §2

[3] = biological target: T2, NK3 receptor (Homo sapiens, UniProt P29371); assay: neurokinin receptor binding assay, NK3
T2 sequence (P29371 1-465): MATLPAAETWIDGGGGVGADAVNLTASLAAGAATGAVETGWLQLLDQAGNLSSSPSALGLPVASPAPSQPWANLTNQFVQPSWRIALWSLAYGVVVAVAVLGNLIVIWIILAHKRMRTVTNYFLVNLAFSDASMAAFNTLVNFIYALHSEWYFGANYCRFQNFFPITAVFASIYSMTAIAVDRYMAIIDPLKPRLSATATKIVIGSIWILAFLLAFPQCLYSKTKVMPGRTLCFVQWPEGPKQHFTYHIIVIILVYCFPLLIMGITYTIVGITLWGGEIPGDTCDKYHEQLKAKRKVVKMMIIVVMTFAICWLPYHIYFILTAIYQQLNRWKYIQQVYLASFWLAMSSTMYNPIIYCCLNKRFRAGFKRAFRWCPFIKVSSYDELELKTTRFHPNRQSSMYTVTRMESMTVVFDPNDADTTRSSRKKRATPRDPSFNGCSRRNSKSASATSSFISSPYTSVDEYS
Excerpt: as §1, §2

Chain of NK1 receptor (P25103 whole entry, species assumed): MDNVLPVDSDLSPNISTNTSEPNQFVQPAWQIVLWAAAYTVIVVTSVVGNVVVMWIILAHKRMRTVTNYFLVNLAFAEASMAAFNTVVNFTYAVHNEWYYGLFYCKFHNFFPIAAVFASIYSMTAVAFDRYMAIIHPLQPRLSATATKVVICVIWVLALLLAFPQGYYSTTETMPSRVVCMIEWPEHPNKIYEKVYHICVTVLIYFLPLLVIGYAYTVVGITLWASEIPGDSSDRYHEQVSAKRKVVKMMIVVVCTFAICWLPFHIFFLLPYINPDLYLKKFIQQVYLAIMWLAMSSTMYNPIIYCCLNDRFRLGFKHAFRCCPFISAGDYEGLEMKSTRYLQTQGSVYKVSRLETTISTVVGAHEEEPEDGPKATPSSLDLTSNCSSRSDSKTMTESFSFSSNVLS

pKi [1]	pKi [2]	pKi [3]	Compound
9.05	8.55		CON=C(CN(C)C(=O)c1cc(Cl)cc(Cl)c1)C(CCN1CCC(N2C(=O)c3ccccc3C2C)CC1)c1ccc(Cl)c(Cl)c1 (stereo not shown) [Example 5B]
9.00	9.00	8.82	CO/N=C(\CN(C)C(=O)c1cc(Cl)cc(Cl)c1)[C@H](CCN1CCC(N2CCCN(CC(=O)N3CCOCC3)C2=O)CC1)c1ccc(Cl)c(Cl)c1 [Example 6E]
9.05	9.30	9.52	CON=C(CN(C)C(=O)c1cc(Cl)cc(Cl)c1)C(CCN1CCC(N2CCCN(C(C)(C)C(=O)O)C2=O)CC1)c1ccc(Cl)c(Cl)c1 (stereo not shown) [Example 6M]
		8.68	CO/N=C(\CN(C)C(=O)c1cc(Cl)cc(Cl)c1)[C@H](CCN1CCC(N2CCCN(Cc3nn[nH]n3)C2=O)CC1)c1ccc(Cl)c(Cl)c1 [Example 6S]
9.40	9.40	9.40	CO/N=C(\CN(C)C(=O)c1cc(Cl)cc(Cl)c1)[C@H](CCN1CCC(N2CCCN(Cc3ccc[n+]([O-])c3)C2=O)CC1)c1ccc(Cl)c(Cl)c1 [Example 6Y]
8.74	9.40	8.42	CO/N=C(\CN(C)C(=O)c1ccc2c(c1)OCO2)[C@H](CCN1CCC(N2CCCNC2=O)CC1)c1ccc(Cl)c(Cl)c1 [Example 7F]
8.96	9.15	8.92	CO/N=C(\CN(C)C(=O)c1cc(Cl)cc(Cl)c1)C(CCN1CCC(N2CCNCC2=O)CC1)c1ccc(Cl)c(Cl)c1 (stereo not shown) [Example 8A]
8.54	7.54	7.46	CO/N=C(\CN(C)C(=O)c1cc(Cl)cc(Cl)c1)C(CCN1CCC(N2CC(=O)N[C@@H](CC(=O)O)C2=O)CC1)c1ccc(Cl)c(Cl)c1 (stereo partly shown) [Example 10B]
9.10	9.00	8.72	CO/N=C(\CN(C)C(=O)c1cc(Cl)cc(Cl)c1)[C@H](CCN1CCC(N2CC(=O)N[C@H](CC(N)=O)C2=O)CC1)c1ccc(Cl)c(Cl)c1 [Example 11A]
9.40	9.40	9.15	CN(C/C(=N\OC/C(N)=N/O)C(CCN1CCC(N2CCCN(C/C(N)=N/O)C2=O)CC1)c1ccc(Cl)c(Cl)c1)C(=O)c1cc(Cl)cc(Cl)c1 (stereo not shown) [Example 16]

Compound	pKi [1]	pKi [2]	pKi [3]
CO/N=C(\CN(C)C(=O)c1cc(Cl)cc(Cl)c1)[C@H](CCN1CCC(n2c(=O)[nH]c3ccccc32)CC1)c1ccc(Cl)c(Cl)c1 [Example 18A]			8.01
